Assay results taken from patent US20250221431A1, “METHOD FOR FEEDING BLACK SOLDIER FLY LARVAE WITH SELENIUM-RICH BACTERIA SOLUTION” (priority 2024, published 2025).
Where two headings read alike, the source gives them in different places.

Tests used:
black soldier fly larvae [1] = conditions: Example 2, chicken feed, 4-day-old larvae
Method: Step 3, 4-day-old black soldier fly larvae were selected to be fed; the selenium-rich bacteria solution was added to chicken feed to enable the chicken feed to have a total selenium content of 100, 200, 300 mg/kg (wet weight), respectively; a moisture content of the chicken feed was controlled to 60%, then the black soldier fly larvae were fed with the chicken feed at a ratio of dry chicken feed to larva being 116 g per 150 larvae (the ratio of dry feed to larva was 0.77) in conditions of 28° C.-30° C. feeding temperature and 60%-70% air humidity level, and feeding was terminated at the end of the fifth instar of the larvae.
(§1) The effects of the selenium-rich bacteria solution on breeding of the selenium-rich black soldier flies were determined according to the indicators, i.e. growth performance of the larvae (survival rate, larva weight), bioconversion efficiency, and selenium content in the larva.
(§2) After the feeding was terminated, the obtained larvae were screened, washed, wiped dry and weighed. The survival rate was calculated according to the number of live larvae. The larvae were subjected to starvation for 1 day, then dried and weighed. The residual feed was also dried and weighed. Thereby, bioconversion efficiency was calculated according to the following: bioconversion efficiency=dry weight of the larvae/(dry weight of the added feed−dry weight of the residual feed)×100%. Selenium content in the larva was determined after smashing the dry larvae according to “GB5009.93-2017 Determination of Selenium in Food”.

black soldier fly larvae [2] = conditions: Example 3, bean pulp/bran/grass meal 3:5:2 feed, 6-day-old larvae
Method: as §2
as §1, with “Effects” for “The effects”, “larva. The test method for each indicator was the same as that in Example 2.” for “larva.”

black soldier fly larvae [3] = conditions: Example 4, bean pulp/bran/grass meal 3:5:2 feed, 6-day-old larvae
Method: as §2
as §1, with “Effects” for “The effects”, “larva. Test method for each indicator was the same as that in Example 2.” for “larva.”

black soldier fly larvae [4] = conditions: Example 5, bean pulp/bran/grass meal 3:5:2 feed, 6-day-old larvae
Method: as §2
as §1, with “larva. Test method for each indicator was the same as that in Example 2.” for “larva.”

[5] = selenium content added 100.00 mg/kg
[6] = selenium content added 200.00 mg/kg
[7] = selenium content added 300.00 mg/kg

O=[Se](O)O [sodium selenite]
Larva weight (black soldier fly larvae [1]; [5]): 212.39 ± 9.63 mg per larva
Larva weight (black soldier fly larvae [1]; [6]): 214.37 ± 7.56 mg per larva
Survival rate (black soldier fly larvae [1]; [6]): 94.22 ± 1.35%
Larva weight (black soldier fly larvae [1]; [7]): 210.57 ± 3.50 mg per larva
Survival rate (black soldier fly larvae [1]; [7]): 91.33 ± 4.27%
Larva weight (black soldier fly larvae [2]; [5]): 179.63 ± 9.99 mg per larva
Survival rate (black soldier fly larvae [2]; [5]): 85.04 ± 8.77%
Larva weight (black soldier fly larvae [2]; [6]): 154.41 ± 10.66 mg per larva
Survival rate (black soldier fly larvae [2]; [6]): 84.51 ± 5.06%
Larva weight (black soldier fly larvae [2]; [7]): 119.53 ± 10.79 mg per larva
Survival rate (black soldier fly larvae [2]; [7]): 82.22 ± 8.77%
Larva weight (black soldier fly larvae [3]; [5]): 183.72 ± 9.71 mg per larva
Survival rate (black soldier fly larvae [3]; [5]): 87.12 ± 6.53%
Larva weight (black soldier fly larvae [3]; [6]): 156.56 ± 11.10 mg per larva
Survival rate (black soldier fly larvae [3]; [6]): 89.27 ± 3.40%
Larva weight (black soldier fly larvae [3]; [7]): 122.15 ± 5.66 mg per larva
Survival rate (black soldier fly larvae [3]; [7]): 83.17 ± 0.97%
Larva weight (black soldier fly larvae [4]; [5]): 179.95 ± 9.51 mg per larva
Survival rate (black soldier fly larvae [4]; [5]): 85.33 ± 6.40%
Larva weight (black soldier fly larvae [4]; [6]): 153.34 ± 10.87 mg per larva
Survival rate (black soldier fly larvae [4]; [6]): 87.43 ± 3.33%
Larva weight (black soldier fly larvae [4]; [7]): 119.64 ± 5.54 mg per larva
Survival rate (black soldier fly larvae [4]; [7]): 81.46 ± 0.96%
